# Measured values as given in patent US9023789B2, “Amylin analogs and pharmaceutical compositions thereof” (Novo Nordisk A/S, priority 2012, dated 2015).
# Numbered stars: 1 amine (or outer) side, 2 acyl side, 3 side chain; on linkers, the order of the positions; unused ones are H or OH. Bridge positions count the residues as written; N and C are the ends. Side chains are listed from the residue outwards. Peptide text beside a SMILES is read from it. * marks the point of attachment. C20 diacid = O=C(O)CCCCCCCCCCCCCCCCCCC(=O)*; γGlu = O=C(O)[C@H](CCC(=O)[*:2])N[*:1]; AEEA = NCCOCCOCC(=O)O
# Columns and labels:
# [1] = target: T1, human calcitonin (a) receptor in BHK570 cells (Homo sapiens, UniProt P30988); test: ASSAY (II)a functional assay, human calcitonin receptor (CRE luciferase); format: cell-based; settings: read-out: hCTR funct. EC50
# T1 construct: expressed in transfected cells
# T1 sequence (P30988 25-474): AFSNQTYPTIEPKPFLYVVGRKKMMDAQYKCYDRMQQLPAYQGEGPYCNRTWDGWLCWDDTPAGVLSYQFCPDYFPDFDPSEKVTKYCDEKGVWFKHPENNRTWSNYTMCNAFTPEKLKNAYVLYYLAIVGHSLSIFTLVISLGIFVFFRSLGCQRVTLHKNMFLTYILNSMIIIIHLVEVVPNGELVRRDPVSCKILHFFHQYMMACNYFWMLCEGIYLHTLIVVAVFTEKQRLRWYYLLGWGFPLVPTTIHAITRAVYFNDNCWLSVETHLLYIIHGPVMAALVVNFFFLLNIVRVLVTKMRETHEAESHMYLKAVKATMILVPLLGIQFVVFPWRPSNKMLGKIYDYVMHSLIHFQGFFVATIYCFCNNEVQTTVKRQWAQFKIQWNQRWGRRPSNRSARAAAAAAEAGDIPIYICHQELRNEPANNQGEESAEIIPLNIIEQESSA
# Procedure, shortened: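 Receptor activation is measured as cAMP-driven CRE-luciferase expression in BHK cells expressing the calcitonin receptor, with RAMP-3 co-expressed to form the amylin 3(a) receptor. Cells are exposed to compound for 3 hours at 37° C, and luciferase is then quantified by luminescence.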
# [2] = target: T2, human calcitonin receptor (Homo sapiens, UniProt P30988); test: ASSAY (VII) binding to the human calcitonin receptor (SPA, 125I-Calcitonin); settings: read-out: hCTR bind IC50;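 note: cell membranes (35 ng/µL) combined with SPA beads in 40 µL of pH 7.4 Hepes buffer, 384-well format, signal counted on a TopCounter instrument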
# T2 construct: expressed in transfected cells
# T2 sequence (P30988 25-474): T1 sequence (P30988 25-474)
EC50 [1] [nM],IC50 [2] [nM],SMILES
1.95,5.14,CC[C@H](C)[C@H](NC(=O)[C@H](C)NC(=O)CNC(=O)[C@H](Cc1ccccc1)NC(=O)[C@H](CC(N)=O)NC(=O)[C@H](CCCCNC(=O)CC[C@H](NC(=O)CC[C@H](NC(=O)CCCCCCCCCCCCCCCCCCC(=O)O)C(=O)O)C(=O)O)NC(=O)[C@H](CO)NC(=O)[C@H](CO)NC(=O)[C@H](Cc1c[nH]cn1)NC(=O)[C@H](CCCNC(=N)N)NC(=O)[C@H](CC(C)C)NC(=O)[C@H](Cc1ccccc1)NC(=O)[C@H](CC(=O)O)NC(=O)[C@H](C)NC(=O)[C@H](CC(C)C)NC(=O)[C@H](CCCNC(=N)N)NC(=O)[C@H](CCC(N)=O)NC(=O)[C@@H](NC(=O)[C@H](C)NC(=O)[C@@H]1CSSC[C@H](NC(=O)[C@@H](N)CCCCN)C(=O)N[C@@H](CC(N)=O)C(=O)N[C@@H]([C@@H](C)O)C(=O)N[C@@H](C)C(=O)N[C@@H]([C@@H](C)O)C(=O)N1)[C@@H](C)O)C(=O)N1CCC[C@H]1C(=O)N[C@@H](CO)C(=O)N[C@@H](CO)C(=O)N[C@H](C(=O)N[C@@H](CC(N)=O)C(=O)N[C@H](C(=O)NCC(=O)N[C@@H](CO)C(=O)N[C@@H](CC(=O)O)C(=O)N[C@H](C(=O)N[C@@H](Cc1ccc(O)cc1)C(N)=O)[C@@H](C)O)C(C)C)[C@@H](C)O [Example 59] (H-KCNTATCATQRLADFLRHSSK([γGlu-γGlu-C20 diacid])NFGAIPSSTNVGSDTY-NH2; disulfide 2-7; N-terminus assumed)
0.542,18,CC[C@H](C)[C@H](NC(=O)[C@H](C)NC(=O)CNC(=O)[C@H](Cc1ccccc1)NC(=O)[C@H](CC(N)=O)NC(=O)[C@@H]1CCCN1C(=O)[C@H](CO)NC(=O)[C@H](CO)NC(=O)[C@H](Cc1c[nH]cn1)NC(=O)[C@H](CCCNC(=N)N)NC(=O)[C@H](CC(C)C)NC(=O)[C@H](Cc1ccccc1)NC(=O)[C@H](Cc1c[nH]cn1)NC(=O)[C@H](C)NC(=O)[C@H](CC(C)C)NC(=O)[C@H](CCCNC(=N)N)NC(=O)[C@H](CCC(N)=O)NC(=O)[C@@H](NC(=O)[C@H](C)NC(=O)[C@@H]1CSSC[C@H](NC(=O)[C@@H](N)CCCCNC(=O)CC[C@H](NC(=O)CCCCCCCCCCCCCCCCCCC(=O)O)C(=O)O)C(=O)N[C@@H](CC(N)=O)C(=O)N[C@@H]([C@@H](C)O)C(=O)N[C@@H](C)C(=O)N[C@@H]([C@@H](C)O)C(=O)N1)[C@@H](C)O)C(=O)N1CCC[C@H]1C(=O)N[C@@H](CO)C(=O)N[C@@H](CO)C(=O)N[C@H](C(=O)N[C@@H](CC(N)=O)C(=O)N[C@H](C(=O)NCC(=O)N[C@@H](CO)C(=O)N[C@@H](Cc1c[nH]cn1)C(=O)N[C@H](C(=O)N[C@@H](Cc1ccc(O)cc1)C(N)=O)[C@@H](C)O)C(C)C)[C@@H](C)O [Example 66] (H-K([γGlu-C20 diacid])CNTATCATQRLAHFLRHSSPNFGAIPSSTNVGSHTY-NH2; disulfide 2-7; N-terminus assumed)
2.7,32.5,CC(C)C[C@H](NC(=O)[C@H](CCCNC(=N)N)NC(=O)[C@H](CCC(N)=O)NC(=O)[C@@H](NC(=O)[C@H](C)NC(=O)[C@@H]1CSSC[C@H](NC(=O)[C@@H](N)CCCCNC(=O)CC[C@H](NC(=O)CC[C@H](NC(=O)CCCCCCCCCCCCCCCCCCC(=O)O)C(=O)O)C(=O)O)C(=O)N[C@@H](CC(N)=O)C(=O)N[C@@H]([C@@H](C)O)C(=O)N[C@@H](C)C(=O)N[C@@H]([C@@H](C)O)C(=O)N1)[C@@H](C)O)C(=O)N[C@@H](C)C(=O)N[C@@H](CC(=O)O)C(=O)N[C@@H](Cc1ccccc1)C(=O)N[C@@H](CC(C)C)C(=O)N[C@@H](CCCNC(=N)N)C(=O)N[C@@H](Cc1c[nH]cn1)C(=O)N[C@@H](CO)C(=O)N[C@@H](CO)C(=O)N1CCC[C@H]1C(=O)N[C@@H](CC(N)=O)C(=O)N[C@@H](Cc1ccccc1)C(=O)NCC(=O)N[C@@H](C)C(=O)N1CCC[C@H]1C(=O)N[C@@H](CC(C)C)C(=O)N[C@@H](CO)C(=O)N[C@@H](CO)C(=O)N[C@H](C(=O)N[C@@H](CC(N)=O)C(=O)N[C@H](C(=O)NCC(=O)N[C@@H](CO)C(=O)N[C@@H](CC(=O)O)C(=O)N[C@H](C(=O)N[C@@H](Cc1ccc(O)cc1)C(N)=O)[C@@H](C)O)C(C)C)[C@@H](C)O [Example 1] (H-K([γGlu-γGlu-C20 diacid])CNTATCATQRLADFLRHSSPNFGAPLSSTNVGSDTY-NH2; disulfide 2-7)
0.92,2.64,CC[C@H](C)[C@H](NC(=O)[C@H](C)NC(=O)CNC(=O)[C@H](Cc1ccccc1)NC(=O)[C@H](CC(N)=O)NC(=O)[C@@H]1CCCN1C(=O)[C@H](CO)NC(=O)[C@H](CO)NC(=O)[C@H](Cc1c[nH]cn1)NC(=O)[C@H](CCCNC(=N)N)NC(=O)[C@H](CC(C)C)NC(=O)[C@H](Cc1ccccc1)NC(=O)[C@H](CC(N)=O)NC(=O)[C@H](C)NC(=O)[C@H](CC(C)C)NC(=O)[C@H](CCCNC(=N)N)NC(=O)[C@H](CCC(N)=O)NC(=O)[C@@H](NC(=O)[C@H](C)NC(=O)[C@@H]1CSSC[C@H](NC(=O)[C@@H](N)CCCCNC(=O)COCCOCCNC(=O)CCCCCCCCCCCCCCCCCCC(=O)O)C(=O)N[C@@H](CC(N)=O)C(=O)N[C@@H]([C@@H](C)O)C(=O)N[C@@H](C)C(=O)N[C@@H]([C@@H](C)O)C(=O)N1)[C@@H](C)O)C(=O)N1CCC[C@H]1C(=O)N[C@@H](CO)C(=O)N[C@@H](CO)C(=O)N[C@H](C(=O)N[C@@H](CC(N)=O)C(=O)N[C@H](C(=O)NCC(=O)N[C@@H](CO)C(=O)N[C@@H](CC(N)=O)C(=O)N[C@H](C(=O)N[C@@H](Cc1ccc(O)cc1)C(N)=O)[C@@H](C)O)C(C)C)[C@@H](C)O [Example 43]
9.07,60.9,CC[C@H](C)[C@H](NC(=O)[C@H](C)NC(=O)CNC(=O)[C@H](Cc1ccccc1)NC(=O)[C@H](CC(N)=O)NC(=O)[C@@H]1CCCN1C(=O)[C@H](CO)NC(=O)[C@H](CO)NC(=O)[C@H](Cc1c[nH]cn1)NC(=O)[C@H](CCCNC(=N)N)NC(=O)[C@H](CC(C)C)NC(=O)[C@H](Cc1ccccc1)NC(=O)[C@@H](NC(=O)[C@H](C)NC(=O)[C@H](CC(C)C)NC(=O)[C@H](CCCNC(=N)N)NC(=O)[C@H](CCC(N)=O)NC(=O)[C@@H](NC(=O)[C@H](C)NC(=O)[C@@H]1CSSC[C@H](NC(=O)[C@@H](N)CCCCNC(=O)COCCOCCNC(=O)CC[C@H](NC(=O)CCCCCCCCCCCCCCCCCCC(=O)O)C(=O)O)C(=O)N[C@@H](CC(N)=O)C(=O)N[C@@H]([C@@H](C)O)C(=O)N[C@@H](C)C(=O)N[C@@H]([C@@H](C)O)C(=O)N1)[C@@H](C)O)[C@@H](C)O)C(=O)N1CCC[C@H]1C(=O)N[C@@H](CO)C(=O)N[C@@H](CO)C(=O)N[C@H](C(=O)N1CCC[C@H]1C(=O)N[C@H](C(=O)NCC(=O)N[C@@H](CO)C(=O)N[C@@H](CC(N)=O)C(=O)N[C@H](C(=O)N[C@@H](Cc1ccc(O)cc1)C(N)=O)[C@@H](C)O)C(C)C)[C@@H](C)O [Example 75] (H-K([AEEA-γGlu-C20 diacid])CNTATCATQRLATFLRHSSPNFGAIPSSTPVGSNTY-NH2; disulfide 2-7 (inferred); N-terminus assumed)
1.97,30.9,CC[C@H](C)[C@H](NC(=O)[C@H](C)NC(=O)CNC(=O)[C@H](Cc1ccccc1)NC(=O)[C@H](CC(N)=O)NC(=O)[C@@H]1CCCN1C(=O)[C@H](CO)NC(=O)[C@H](CO)NC(=O)[C@H](Cc1c[nH]cn1)NC(=O)[C@H](CCCNC(=N)N)NC(=O)[C@H](CC(C)C)NC(=O)[C@H](Cc1ccccc1)NC(=O)[C@H](CC(N)=O)NC(=O)[C@H](C)NC(=O)[C@H](CC(C)C)NC(=O)[C@H](CCCNC(=N)N)NC(=O)[C@H](CCC(N)=O)NC(=O)[C@@H](NC(=O)[C@H](C)NC(=O)[C@@H]1CSSC[C@H](NC(=O)[C@@H](N)CCCCNC(=O)CC[C@H](NC(=O)CCCCCCCCCCCCCCCCCCC(=O)O)C(=O)O)C(=O)N[C@@H](CC(N)=O)C(=O)N[C@@H]([C@@H](C)O)C(=O)N[C@@H](C)C(=O)N[C@@H]([C@@H](C)O)C(=O)N1)[C@@H](C)O)C(=O)N1CCC[C@H]1C(=O)N[C@@H](CO)C(=O)N[C@@H](CO)C(=O)N[C@H](C(=O)N[C@@H](CC(N)=O)C(=O)N[C@H](C(=O)NCC(=O)N[C@@H](CO)C(=O)N[C@@H](CC(N)=O)C(=O)N[C@H](C(=O)N[C@@H](Cc1ccc(O)cc1)C(N)=O)[C@@H](C)O)C(C)C)[C@@H](C)O [Example 48]
0.236,–,CC[C@H](C)[C@H](NC(=O)[C@H](C)NC(=O)CNC(=O)[C@H](Cc1ccccc1)NC(=O)[C@H](CC(N)=O)NC(=O)[C@@H]1CCCN1C(=O)[C@H](CO)NC(=O)[C@H](CO)NC(=O)[C@H](Cc1c[nH]cn1)NC(=O)[C@H](CCCNC(=N)N)NC(=O)[C@H](CC(C)C)NC(=O)[C@H](Cc1ccccc1)NC(=O)[C@H](Cc1c[nH]cn1)NC(=O)[C@H](C)NC(=O)[C@H](CC(C)C)NC(=O)[C@H](CCCNC(=N)N)NC(=O)[C@H](CCC(N)=O)NC(=O)[C@@H](NC(=O)[C@H](C)NC(=O)[C@@H]1CSSC[C@H](NC(=O)[C@@H](N)CCCCNC(=O)COCCOCCNC(=O)CCCCCCCCCCCCCCCCCCC(=O)O)C(=O)N[C@@H](CC(N)=O)C(=O)N[C@@H]([C@@H](C)O)C(=O)N[C@@H](C)C(=O)N[C@@H]([C@@H](C)O)C(=O)N1)[C@@H](C)O)C(=O)N1CCC[C@H]1C(=O)N[C@@H](CO)C(=O)N[C@@H](CO)C(=O)N[C@H](C(=O)N[C@@H](CC(N)=O)C(=O)N[C@H](C(=O)NCC(=O)N[C@@H](CO)C(=O)N[C@@H](CC(N)=O)C(=O)N[C@H](C(=O)N[C@@H](Cc1ccc(O)cc1)C(N)=O)[C@@H](C)O)C(C)C)[C@@H](C)O [Example 90]
